From ChEMBL document CHEMBL1125935, “(Phenylmethoxy)phenyl derivatives of omega-oxo- and omega-tetrazolylalkanoic acids and related tetrazoles. Synthesis and evaluation as leukotriene D4 receptor antagonists” (J Med Chem, 1991)

How the values were obtained:
[1] = species: Cavia porcellus; assay: Antagonistic activity with LTC4 as agonist in trachea tissue of guinea pig smooth muscles.; type: functional, Muscle tissue
[2] = species: Cavia porcellus; assay: Antagonistic activity with LTD4 as agonist in trachea tissue of guinea pig smooth muscles.; type: functional, Muscle tissue
[3] = species: Cavia porcellus; assay: Antagonistic activity with LTE4 as agonist in trachea tissue of guinea pig smooth muscles.; type: functional, Muscle tissue
[4] = species: Cavia porcellus; assay: pA2 value on guinea pig ileum tissue in presence of LTD4 as agonist; type: functional; conditions: read-out: pA2 (converted)
[5] = species: Cavia porcellus; assay: pA2 value on guinea pig ileum tissue in presence of LTE4 as agonist; type: functional; conditions: read-out: pA2 (converted)
[6] = species: Cavia porcellus; assay: Antagonistic activity with Histamin as agonist in ileum tissue of guinea pig smooth muscles.; type: functional
[7] = species: Cavia porcellus; assay: Antagonistic activity with LTC4 as agonist in ileum tissue of guinea pig smooth muscles.; type: functional
[8] = species: Cavia porcellus; assay: Antagonistic activity with LTD4 as agonist in ileum tissue of guinea pig smooth muscles.; type: functional
[9] = species: Cavia porcellus; assay: Antagonistic activity with LTE4 as agonist in ileum tissue of guinea pig smooth muscles.; type: functional
[10] = species: Cavia porcellus; assay: pA2 value on guinea pig trachea tissue in presence of LTD4 as agonist; type: functional; conditions: read-out: pA2 (converted)
[11] = species: Cavia porcellus; assay: pA2 value on guinea pig trachea tissue in presence of LTE4 as agonist; type: functional; conditions: read-out: pA2 (converted)
[12] = species: Cavia porcellus; assay: Antagonistic activity with Bradykinin as agonist in ileum tissue of guinea pig smooth muscles.; type: functional
[13] = species: Cavia porcellus; assay: pA2 value on guinea pig parenchyma tissue in presence of LTE4 as agonist; type: functional; conditions: read-out: pA2 (converted)
[14] = species: Cavia porcellus; assay: Antagonistic activity with Carbamylcholine as agonist in trachea tissue of guinea pig smooth muscles.; type: functional, Muscle tissue
[15] = species: Cavia porcellus; assay: Antagonistic activity with LTD4 as agonist in parenchyma tissue of guinea pig smooth muscles.; type: functional, Muscle tissue
[16] = species: Cavia porcellus; assay: Antagonistic activity with LTE4 as agonist in parenchyma tissue of guinea pig smooth muscles.; type: functional, Muscle tissue
[17] = species: Cavia porcellus; assay: Antagonistic activity with U-46,619 as agonist in trachea tissue of guinea pig smooth muscles.; type: functional, Muscle tissue
[18] = species: Cavia porcellus; assay: pA2 value on guinea pig parenchyma tissue in presence of LTD4 as agonist; type: functional; conditions: read-out: pA2 (converted)

SMILES	pKB [1]	pKB [2]	pKB [3]	Kb [4]	Kb [5]	pKB [6]	pKB [7]	pKB [8]	pKB [9]	Kb [10]	Kb [11]	pKB [12]	Kb [13]	pKB [14]	pKB [15]	pKB [16]	pKB [17]	Kb [18]
CCCc1c(COc2ccc(Cc3nnn(CCCc4nnn[n-]4)n3)cc2)ccc(C(C)=O)c1O.[Na+]	5.67	6.69	7.57	12 nM	3.63 nM	<5	5.39	7.84	8.37	204 nM	26.9 nM	–	–	–	–	–	–	–
CCc1c(COc2ccc(C(=O)CC(C)(C)CC(=O)[O-])cc2)ccc(C(C)=O)c1O.[Na+]	<5	6.52	7.09	–	9.77 nM	<5	<5	7.46	7.73	–	63.1 nM	<5	36.3 nM	<5	6.74	7.13	<5	138 nM
